Converted amounts (≈) assume the structure as drawn.
What was measured:
[1] = Drug level in Sprague-Dawley rat urine treated with 2-(4-(3,3-Difluoropyrrolidin-1-yl)phenyl)-5,7-difluoro-3-methylquinolin-4-yl acetate at 50 mg/kg, po via gavage up to 9 hrs by HPLC analysis; type: ADME, organism-based; details: in vivo
[2] = Retention time of compound by HPLC anlaysis
[3] = Drug level in Sprague-Dawley rat bile treated with 2-(4-(3,3-Difluoropyrrolidin-1-yl)phenyl)-5,7-difluoro-3-methylquinolin-4-yl acetate at 50 mg/kg, po via gavage up to 9 hrs by HPLC analysis; type: ADME, organism-based; details: in vivo
[4] = Half life in human plasma at 1 uM measured up to 3 hrs by LC-MS/MS analysis; type: ADME, cell-free
[5] = Metabolic stability in rat liver microsomes assessed as half life for metabolic turnover at 0.1 to 10 uM preincubated for 60 mins in presence of NADPH measured up to 60 mins by mass spectroscopic analysis; type: ADME, microsome
[6] = system: HepG2; assay: Cytotoxicity against human HepG2 cells after 24 hrs in presence of glucose by MTT assay; type: cell-based; details: hepg2, 24 h
[7] = Half life in rat plasma at 1 uM measured up to 3 hrs by LC-MS/MS analysis; type: ADME, cell-free
[8] = Metabolic stability in mouse liver microsomes assessed as half life for metabolic turnover at 0.1 to 10 uM preincubated for 60 mins in presence of NADPH measured up to 60 mins by mass spectroscopic analysis; type: ADME, microsome
[9] = system: Mycobacterium tuberculosis H37Rv; assay: (§1) Inhibition of replicating Mycobacterium tuberculosis H37Rv NDH assessed as cell growth inhibition after 7 days by MABA method
[10] = as §1; details: 168 h
[11] = Metabolic stability in human liver microsomes assessed as half life for metabolic turnover at 0.1 to 10 uM preincubated for 60 mins in presence of NADPH measured up to 60 mins by mass spectroscopic analysis; type: ADME, microsome
[12] = Apparent permeability across apical to basolateral side in human Caco2 cells at 5 uM measured up to 180 mins by LC-MS/MS analysis; type: ADME, cell-based; details: Caco-2
[13] = Solubility of compound at pH 7.4; type: physicochemical; details: buffer
[14] = Solubility of compound in Middlebrook 7H9 broth media containing 10% albumin-dextrose-catalase solution; type: physicochemical
[15] = Solubility of compound at pH 1; type: physicochemical; details: buffer
[16] = Protein binding in human plasma at 1 uM after 18 hrs by equilibrium dialysis; type: ADME, cell-free; details: read-out: PPB (converted)
[17] = Intrinsic clearance in rat hepatocytes assessed per million cells; type: ADME, cell-based, Hepatocyte; details: read-out: CLH
[18] = Intrinsic clearance in mouse microsomes; type: ADME, Microsome; details: read-out: CLH
[19] = biological target: CYP3A4 (Homo sapiens, UniProt P08684); assay: Inhibition of human microsomal CYP3A4 expressed in insect cells at 10 uM using BOMCC as substrate measured every minute for 1 hr by fluorescence-based assay; type: ADME; details: probe BOMCC
[20] = Intrinsic clearance in rat microsomes; type: ADME, Microsome; details: read-out: CLH
[21] = biological target: CYP2C9 (Homo sapiens, UniProt P11712); assay: Inhibition of human microsomal CYP2C9 expressed in insect cells at 10 uM using OOMR as substrate measured every minute for 1 hr by fluorescence-based assay; type: ADME; details: probe OOMR
[22] = biological target: CYP3A5 (Homo sapiens, UniProt P20815); assay: Inhibition of human microsomal CYP3A5 expressed in insect cells at 10 uM using BOMCC as substrate measured every minute for 1 hr by fluorescence-based assay; type: ADME; details: probe BOMCC
[23] = Intrinsic clearance in human microsomes; type: ADME, Microsome; details: read-out: CLH
[24] = Aqueous solubility of compound; type: physicochemical; details: buffer
[25] = biological target: T1, CYP2C8 (Homo sapiens, UniProt P10632); assay: Inhibition of human microsomal CYP2C8 expressed in insect cells at 10 uM using DBOMF as substrate measured every minute for 1 hr by fluorescence-based assay; type: ADME; details: probe DBOMF
T1 sequence (P10632 whole entry): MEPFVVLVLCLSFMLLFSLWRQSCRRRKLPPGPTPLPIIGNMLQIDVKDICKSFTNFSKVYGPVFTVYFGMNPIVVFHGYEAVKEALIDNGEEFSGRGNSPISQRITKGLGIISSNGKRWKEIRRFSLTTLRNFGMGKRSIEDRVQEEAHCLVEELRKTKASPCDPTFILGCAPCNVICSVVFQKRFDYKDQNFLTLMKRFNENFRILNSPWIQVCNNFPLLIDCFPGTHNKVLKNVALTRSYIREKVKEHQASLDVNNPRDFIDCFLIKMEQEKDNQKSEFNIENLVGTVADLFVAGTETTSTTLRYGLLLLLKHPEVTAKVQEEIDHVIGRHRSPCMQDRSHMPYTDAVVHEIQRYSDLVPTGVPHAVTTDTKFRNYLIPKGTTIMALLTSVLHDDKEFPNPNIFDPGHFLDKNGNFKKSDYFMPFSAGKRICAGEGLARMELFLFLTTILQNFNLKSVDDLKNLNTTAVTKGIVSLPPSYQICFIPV

[26] = system: Mycobacterium tuberculosis; assay: Growth inhibition of dormant Mycobacterium tuberculosis H37Rv incubated for 7 days under anaerobic condition followed incubation under aerobic condition for 7 days by MABA; type: functional; details: 168 h
[27] = biological target: Voltage-gated inwardly rectifying potassium channel KCNH2 (Homo sapiens, UniProt Q12809); assay: Inhibition of human ERG
[28] = system: Salmonella typhimurium; assay: Mutagenicity in Salmonella typhimurium by Ames test; type: toxicity; details: salmonella enterica subsp. enterica serovar typhimurium
[29] = Apparent permeability across basolateral to apical side in human Caco2 cells at 5 uM measured up to 180 mins by LC-MS/MS analysis; type: ADME, cell-based; details: Caco-2
[30] = biological target: CYP2D6 (Homo sapiens, UniProt P10635); assay: Inhibition of human microsomal CYP2D6 expressed in insect cells at 10 uM using MOBFC as substrate measured every minute for 1 hr by fluorescence-based assay; type: ADME; details: probe MOBFC
[31] = Lipophilicity, logD of compound at pH 7.4; details: buffer
[32] = system: Mycobacterium tuberculosis; assay: Growth inhibition of replicating Mycobacterium tuberculosis H37Rv at 5 uM after 7 days by MABA method relative to control; type: functional; details: 168 h, read-out: GI
[33] = Inhibition of Mycobacterium tuberculosis NDH by HTS-based assay

Sequence of CYP3A4 (P08684 whole entry): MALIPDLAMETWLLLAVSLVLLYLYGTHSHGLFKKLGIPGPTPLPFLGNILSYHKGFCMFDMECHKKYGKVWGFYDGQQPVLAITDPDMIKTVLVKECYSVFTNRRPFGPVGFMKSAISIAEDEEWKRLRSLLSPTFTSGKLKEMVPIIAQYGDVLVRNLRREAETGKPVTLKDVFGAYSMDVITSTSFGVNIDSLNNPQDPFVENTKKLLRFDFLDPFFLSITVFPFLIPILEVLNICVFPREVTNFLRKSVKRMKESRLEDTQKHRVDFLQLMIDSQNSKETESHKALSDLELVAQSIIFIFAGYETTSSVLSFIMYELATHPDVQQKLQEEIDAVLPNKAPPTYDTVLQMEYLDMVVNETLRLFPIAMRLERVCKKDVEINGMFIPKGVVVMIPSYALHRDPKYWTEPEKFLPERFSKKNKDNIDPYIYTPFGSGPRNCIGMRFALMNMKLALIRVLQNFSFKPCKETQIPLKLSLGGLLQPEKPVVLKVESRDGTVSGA
Sequence of CYP2C9 (P11712 whole entry): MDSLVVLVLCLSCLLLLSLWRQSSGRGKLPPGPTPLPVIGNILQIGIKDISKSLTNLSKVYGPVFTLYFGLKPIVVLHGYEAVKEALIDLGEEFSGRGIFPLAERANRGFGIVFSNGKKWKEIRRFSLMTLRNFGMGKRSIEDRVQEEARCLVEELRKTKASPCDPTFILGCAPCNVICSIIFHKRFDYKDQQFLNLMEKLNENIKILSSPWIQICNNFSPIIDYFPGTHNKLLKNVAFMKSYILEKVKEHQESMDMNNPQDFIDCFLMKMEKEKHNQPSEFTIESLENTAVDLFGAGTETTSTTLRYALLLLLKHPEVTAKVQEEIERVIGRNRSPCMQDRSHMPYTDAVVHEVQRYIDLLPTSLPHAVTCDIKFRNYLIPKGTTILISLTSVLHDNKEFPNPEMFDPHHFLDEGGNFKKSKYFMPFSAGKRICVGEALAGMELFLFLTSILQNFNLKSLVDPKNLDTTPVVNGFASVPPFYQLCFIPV
Sequence of Voltage-gated inwardly rectifying potassium channel KCNH2 (Q12809 whole entry): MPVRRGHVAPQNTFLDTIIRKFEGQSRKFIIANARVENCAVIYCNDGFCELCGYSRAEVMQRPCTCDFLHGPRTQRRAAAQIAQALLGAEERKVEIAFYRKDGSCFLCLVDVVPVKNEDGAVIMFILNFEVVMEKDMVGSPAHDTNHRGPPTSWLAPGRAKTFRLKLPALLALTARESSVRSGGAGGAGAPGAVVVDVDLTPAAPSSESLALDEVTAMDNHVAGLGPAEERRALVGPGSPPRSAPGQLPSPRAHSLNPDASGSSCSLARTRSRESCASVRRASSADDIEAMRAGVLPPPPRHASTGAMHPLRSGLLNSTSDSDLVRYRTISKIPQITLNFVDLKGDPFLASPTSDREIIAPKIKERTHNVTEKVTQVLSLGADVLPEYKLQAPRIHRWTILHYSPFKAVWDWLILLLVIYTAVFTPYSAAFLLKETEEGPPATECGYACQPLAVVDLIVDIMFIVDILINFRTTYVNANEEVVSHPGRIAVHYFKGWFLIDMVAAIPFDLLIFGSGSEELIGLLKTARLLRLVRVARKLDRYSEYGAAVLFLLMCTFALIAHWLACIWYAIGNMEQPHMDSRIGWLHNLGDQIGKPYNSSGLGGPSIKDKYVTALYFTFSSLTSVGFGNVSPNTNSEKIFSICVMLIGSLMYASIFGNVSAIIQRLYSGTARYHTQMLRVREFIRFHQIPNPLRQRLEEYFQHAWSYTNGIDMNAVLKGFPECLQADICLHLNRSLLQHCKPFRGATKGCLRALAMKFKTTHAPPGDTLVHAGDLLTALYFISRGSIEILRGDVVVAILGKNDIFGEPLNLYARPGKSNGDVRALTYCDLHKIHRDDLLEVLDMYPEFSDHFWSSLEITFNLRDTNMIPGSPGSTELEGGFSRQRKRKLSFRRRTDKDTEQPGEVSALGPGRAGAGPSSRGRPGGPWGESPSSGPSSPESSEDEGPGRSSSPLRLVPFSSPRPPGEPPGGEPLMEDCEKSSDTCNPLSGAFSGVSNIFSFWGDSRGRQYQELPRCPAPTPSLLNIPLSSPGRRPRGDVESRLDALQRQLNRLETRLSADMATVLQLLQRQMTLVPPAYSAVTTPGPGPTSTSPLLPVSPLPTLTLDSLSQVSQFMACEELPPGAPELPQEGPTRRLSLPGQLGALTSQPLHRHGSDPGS
Sequence of CYP3A5 (P20815 whole entry): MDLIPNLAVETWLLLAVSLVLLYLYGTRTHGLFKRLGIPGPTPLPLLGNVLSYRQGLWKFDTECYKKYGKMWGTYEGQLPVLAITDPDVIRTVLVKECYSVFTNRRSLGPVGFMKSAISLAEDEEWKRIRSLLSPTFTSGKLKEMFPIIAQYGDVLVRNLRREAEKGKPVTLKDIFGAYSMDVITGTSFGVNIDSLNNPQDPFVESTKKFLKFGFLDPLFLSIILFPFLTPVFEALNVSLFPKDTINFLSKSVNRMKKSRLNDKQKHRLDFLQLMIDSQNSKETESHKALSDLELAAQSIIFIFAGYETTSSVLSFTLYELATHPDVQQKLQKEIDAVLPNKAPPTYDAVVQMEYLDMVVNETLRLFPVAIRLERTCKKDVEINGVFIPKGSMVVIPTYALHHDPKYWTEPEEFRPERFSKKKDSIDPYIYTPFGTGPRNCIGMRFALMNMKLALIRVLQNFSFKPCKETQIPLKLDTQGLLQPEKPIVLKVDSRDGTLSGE
Sequence of CYP2D6 (P10635 whole entry): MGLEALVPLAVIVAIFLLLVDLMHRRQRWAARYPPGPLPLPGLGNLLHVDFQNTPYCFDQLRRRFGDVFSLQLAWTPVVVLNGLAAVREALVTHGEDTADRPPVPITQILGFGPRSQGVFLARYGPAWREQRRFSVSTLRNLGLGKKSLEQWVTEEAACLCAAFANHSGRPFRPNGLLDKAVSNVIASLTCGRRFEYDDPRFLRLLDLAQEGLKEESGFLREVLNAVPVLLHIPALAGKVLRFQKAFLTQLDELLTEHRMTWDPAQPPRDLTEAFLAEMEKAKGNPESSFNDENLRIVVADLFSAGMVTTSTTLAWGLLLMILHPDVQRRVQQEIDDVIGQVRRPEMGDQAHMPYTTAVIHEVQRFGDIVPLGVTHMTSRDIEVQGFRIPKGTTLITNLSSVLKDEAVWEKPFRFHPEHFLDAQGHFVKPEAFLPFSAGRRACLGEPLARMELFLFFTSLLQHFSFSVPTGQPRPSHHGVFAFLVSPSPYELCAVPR

SMILES: Cc1c(-c2ccc(N3CC(O)C(F)(F)C3)cc2)nc2cc(F)cc(F)c2c1O (stereo not given)
- Drug metabolism [1]: Metabolite_Detected
- Retention time [2]: 10.1 min
- Drug metabolism [3]: Metabolite_Detected

SMILES: Cc1c(-c2ccc(N3CCCC(F)C3)cc2)[nH]c2cc(F)cc(F)c2c1=O (stereo not given)
- half-life at 1 µM [4]: > 180 min
- half-life at up to 10 µM [5]: 10.1 min
- Activity [6]: 188.1 µM
- half-life at 1 µM [7]: > 180 min
- half-life at up to 10 µM [8]: 6.8 min
- IC90 [9]: 560 nM
- IC50 [10]: 300 to 310 nM
- half-life at up to 10 µM [11]: 7.8 min
- Papp A→B at 3 h, 5 µM [12]: 22.9 ×10⁻⁶ cm/s
- solubility [13]: < 1 µg/mL
- solubility [14]: 10 µg/mL (≈ 26.9 µM)
- solubility [15]: > 150 µg/mL
- fraction unbound at 18 h, 1 µM [16]: 0.0155

SMILES: Cc1c(-c2ccc(N3CCC(F)(F)C3)cc2)[nH]c2cc(F)cc(F)c2c1=O
- hepatocyte CLint [17]: 52.2 µL/min/1e6 cells
- microsomal CLint [18]: 6.03 µL/min/mg
- half-life at 1 µM [4]: > 180 min
- Drug metabolism [1]: Metabolite_Detected
- inhibition at 1 h, 10 µM [19]: 0%
- microsomal CLint [20]: 11.2 µL/min/mg
- half-life at up to 10 µM [5]: 61.6 min
- inhibition at 1 h, 10 µM [21]: 0%
- inhibition at 1 h, 10 µM [22]: 0%
- microsomal CLint [23]: 9.52 to 89.7 µL/min/mg
- Activity [6]: > 100 µM
- half-life at 1 µM [7]: > 180 min
- solubility [24]: 0.2 µM (≈ 0.0753 µg/mL)
- inhibition at 1 h, 10 µM [25]: 38%
- IC90 [26]: 76 nM
- half-life at up to 10 µM [8]: 115 min
- Retention time [2]: 11.4 min
- IC50 [27]: > 25 µM
- IC90 [9]: 1100 nM
- IC50 [10]: 525 to 530 nM
- half-life at up to 10 µM [11]: 72.8 min
- Activity [28]: Non-Toxic
- Papp B→A at 3 h, 5 µM [29]: 9.8 ×10⁻⁶ cm/s
- Papp A→B at 3 h, 5 µM [12]: 10 ×10⁻⁶ cm/s
- solubility [13]: < 1 µg/mL
- solubility [14]: 55 µg/mL (≈ 146 µM)
- inhibition at 1 h, 10 µM [30]: 0%
- Drug metabolism [3]: Metabolite_Detected
- solubility [15]: < 1 µg/mL
- fraction unbound at 18 h, 1 µM [16]: 0.003 to 0.027

SMILES: Cc1c(-c2ccc(N3CC[C@H](F)C3)cc2)[nH]c2cc(F)cc(F)c2c1=O
- hepatocyte CLint [17]: 150 µL/min/1e6 cells
- half-life at 1 µM [4]: > 180 min
- microsomal CLint [23]: 197 µL/min/mg
- half-life at 1 µM [7]: > 180 min
- solubility [24]: 1 µM (≈ 0.358 µg/mL)
- logD [31]: 3.6
- IC50 [10]: 1800 nM
- Papp A→B at 3 h, 5 µM [12]: 15.5 ×10⁻⁶ cm/s
- solubility [13]: < 1 µg/mL
- solubility [14]: 2.5 µg/mL (≈ 6.98 µM)
- solubility [15]: < 1 µg/mL
- fraction unbound at 18 h, 1 µM [16]: 0.0103 to 0.014

SMILES: OCc1c(-c2ccc(N3CC(O)C(F)(F)C3)cc2)nc2cc(F)cc(F)c2c1O (stereo not given)
- Drug metabolism [1]: Metabolite_Detected
- Retention time [2]: 8.6 min
- Drug metabolism [3]: Metabolite_Detected

SMILES: COc1ccc2c(=O)c(C)c(-c3ccc(N4CCCCC4)cc3)[nH]c2c1
- inhibition of growth at 5 µM [32]: > 50%
- IC50 [10]: 730 nM
- IC50 [33]: 730 nM

SMILES: Cc1c(-c2ccc(-n3cccc3)cc2)[nH]c2cc(F)cc(F)c2c1=O
- half-life at 1 µM [4]: > 180 min
- half-life at up to 10 µM [5]: 30.1 min
- Activity [6]: 141 µM
- half-life at 1 µM [7]: > 180 min
- half-life at up to 10 µM [8]: 20.7 min
- IC90 [9]: 690 nM
- IC50 [10]: 432 to 440 nM
- half-life at up to 10 µM [11]: 10.2 min
- Papp A→B at 3 h, 5 µM [12]: 31 ×10⁻⁶ cm/s
- solubility [13]: 3.6 µg/mL (≈ 10.7 µM)
- solubility [14]: 61 µg/mL (≈ 181 µM)
- solubility [15]: 5.1 µg/mL (≈ 15.2 µM)
- fraction unbound at 18 h, 1 µM [16]: 0.039

SMILES: Cc1c(-c2ccc(N3CCCCC3)cc2)[nH]c2ccccc2c1=O
- inhibition of growth at 5 µM [32]: > 50%
- IC50 [10]: 1500 nM
- IC50 [33]: 1500 nM
